# Results: PubChem BioAssay (NCI)
#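 Step 1: Grow cells in 96-well plates. Step 2: Expose to compound for 48 hours at 5 concentrations. Step 3: Interpolate endpoints linearly; if unreached, use highest concentration. At the TGI there is no net growth.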
# Columns and labels:
# Test in all cases: inhibition of tumour cell growth, NCI panel, 48 h
# T-47D breast = tested on: T-47D breast
# OVCAR-4 ovarian = tested on: OVCAR-4 ovarian
# UACC-62 melanoma = tested on: UACC-62 melanoma
# HS 578T breast = tested on: HS 578T breast
# SF-295 CNS = tested on: SF-295 CNS
# COLO 205 colon = tested on: COLO 205 colon
# SK-MEL-2 melanoma = tested on: SK-MEL-2 melanoma
# HOP-62 NSCLC = tested on: HOP-62 NSCLC
# SF-539 CNS = tested on: SF-539 CNS
# LOX IMVI melanoma = tested on: LOX IMVI melanoma
compound,measurement,setting,value
O=C(/C=C/c1cc(O)c(O)cc1O)OCCc1ccccc1,TGI,T-47D breast,20.1 µM
same,TGI,OVCAR-4 ovarian,31.8 µM
same,TGI,UACC-62 melanoma,40.5 µM
same,TGI,HS 578T breast,> 93.9 µM
same,TGI,SF-295 CNS,> 82.3 µM
same,TGI,COLO 205 colon,25.7 µM
same,TGI,SK-MEL-2 melanoma,47.2 µM
same,TGI,HOP-62 NSCLC,75.4 µM
same,TGI,SF-539 CNS,44.5 µM
same,TGI,LOX IMVI melanoma,32 µM
O=C/C=C/c1ccco1,TGI,T-47D breast,> 100 µM
same,TGI,OVCAR-4 ovarian,> 100 µM
same,TGI,UACC-62 melanoma,> 100 µM
same,TGI,HS 578T breast,> 100 µM
same,TGI,SF-295 CNS,> 100 µM
same,TGI,COLO 205 colon,> 100 µM
same,TGI,SK-MEL-2 melanoma,> 100 µM
same,TGI,HOP-62 NSCLC,> 100 µM
same,TGI,SF-539 CNS,> 100 µM
same,TGI,LOX IMVI melanoma,> 100 µM
CC(=O)N(O)[C@@H]1CC[C@H](n2cnc3c(N)ncnc32)C1,TGI,T-47D breast,> 100 µM
same,TGI,OVCAR-4 ovarian,> 100 µM
same,TGI,UACC-62 melanoma,> 100 µM
same,TGI,HS 578T breast,> 100 µM
same,TGI,SF-295 CNS,> 100 µM
same,TGI,COLO 205 colon,> 100 µM
same,TGI,SK-MEL-2 melanoma,> 100 µM
same,TGI,HOP-62 NSCLC,> 100 µM
same,TGI,SF-539 CNS,> 100 µM
same,TGI,LOX IMVI melanoma,> 100 µM
CCOC(=O)C(Cl)(NC(=O)c1c(F)c(F)c(F)c(F)c1F)C(F)(F)F (stereo not given),TGI,T-47D breast,> 100 µM
same,TGI,OVCAR-4 ovarian,> 100 µM
same,TGI,UACC-62 melanoma,> 100 µM
same,TGI,HS 578T breast,> 100 µM
same,TGI,SF-295 CNS,> 100 µM
same,TGI,COLO 205 colon,> 100 µM
same,TGI,SK-MEL-2 melanoma,> 100 µM
same,TGI,HOP-62 NSCLC,> 100 µM
same,TGI,SF-539 CNS,> 100 µM
same,TGI,LOX IMVI melanoma,> 100 µM
CN(C)c1ccccc1CN1CCCN(Cc2ccccc2N(C)C)C1c1ccncc1,TGI,T-47D breast,38.7 µM
same,TGI,OVCAR-4 ovarian,33 µM
same,TGI,UACC-62 melanoma,27.6 µM
same,TGI,HS 578T breast,41.8 µM
same,TGI,SF-295 CNS,29.8 µM
same,TGI,COLO 205 colon,30.3 µM
same,TGI,SK-MEL-2 melanoma,36.5 µM
same,TGI,HOP-62 NSCLC,30.3 µM
same,TGI,SF-539 CNS,36 µM
same,TGI,LOX IMVI melanoma,28.4 µM
COC(=O)C1=C(O)C(C(=O)OC)[C@]2(O)[C@H](C(=O)OC)[C@H]1C[C@@H](c1c(Cl)cccc1Cl)[C@H]2C(=O)OC (stereo not given in full),TGI,T-47D breast,23 µM
same,TGI,OVCAR-4 ovarian,30.4 µM
same,TGI,UACC-62 melanoma,5.56 µM
same,TGI,HS 578T breast,27.3 µM
same,TGI,SF-295 CNS,7.57 µM
same,TGI,COLO 205 colon,4.37 µM
same,TGI,SK-MEL-2 melanoma,3.33 µM
same,TGI,HOP-62 NSCLC,10.8 µM
same,TGI,SF-539 CNS,3.78 µM
same,TGI,LOX IMVI melanoma,3.69 µM
COC(=O)C1CCC(=O)N1C(c1ccc(OC)cc1)c1ccc(OC)cc1 (stereo not given),TGI,T-47D breast,> 100 µM
same,TGI,OVCAR-4 ovarian,> 100 µM
same,TGI,UACC-62 melanoma,> 100 µM
same,TGI,HS 578T breast,> 100 µM
same,TGI,SF-295 CNS,> 100 µM
same,TGI,COLO 205 colon,> 100 µM
same,TGI,SK-MEL-2 melanoma,> 100 µM
same,TGI,HOP-62 NSCLC,> 100 µM
same,TGI,SF-539 CNS,> 100 µM
same,TGI,LOX IMVI melanoma,> 100 µM
Cc1cc(Cc2c(F)c(F)c(C(c3cc(C)no3)c3c(F)c(F)c(F)c(F)c3F)c(F)c2F)on1 (stereo not given),TGI,T-47D breast,> 100 µM
same,TGI,OVCAR-4 ovarian,> 100 µM
same,TGI,UACC-62 melanoma,> 100 µM
same,TGI,HS 578T breast,> 100 µM
same,TGI,SF-295 CNS,> 100 µM
same,TGI,COLO 205 colon,> 100 µM
same,TGI,SK-MEL-2 melanoma,> 100 µM
same,TGI,HOP-62 NSCLC,> 100 µM
same,TGI,SF-539 CNS,> 100 µM
same,TGI,LOX IMVI melanoma,> 100 µM
CSCCCNC(=O)c1csc(-c2csc(C(CNC(=O)OC(C)(C)C)CNC(=O)OC(C)(C)C)n2)n1,TGI,T-47D breast,> 100 µM
same,TGI,OVCAR-4 ovarian,> 100 µM
same,TGI,UACC-62 melanoma,40.4 µM
same,TGI,HS 578T breast,> 100 µM
same,TGI,SF-295 CNS,> 100 µM
same,TGI,COLO 205 colon,> 100 µM
same,TGI,SK-MEL-2 melanoma,73.7 µM
same,TGI,HOP-62 NSCLC,> 100 µM
same,TGI,SF-539 CNS,> 100 µM
same,TGI,LOX IMVI melanoma,> 100 µM
Cc1ccc(O)c(-c2cc(-c3cccc(Cl)c3)c(C#N)c(N)n2)c1,TGI,T-47D breast,> 100 µM
same,TGI,OVCAR-4 ovarian,41.3 µM
same,TGI,UACC-62 melanoma,35.9 µM
same,TGI,HS 578T breast,49.7 µM
same,TGI,SF-295 CNS,32.6 µM
same,TGI,COLO 205 colon,32.3 µM
same,TGI,SK-MEL-2 melanoma,31.6 µM
same,TGI,HOP-62 NSCLC,48.2 µM
same,TGI,SF-539 CNS,52 µM
same,TGI,LOX IMVI melanoma,30.8 µM
c1ccc2c(c1)ncn2C1CCCCO1 (stereo not given),TGI,T-47D breast,> 100 µM
same,TGI,OVCAR-4 ovarian,> 100 µM
same,TGI,UACC-62 melanoma,> 100 µM
same,TGI,HS 578T breast,> 100 µM
same,TGI,SF-295 CNS,> 100 µM
same,TGI,COLO 205 colon,> 100 µM
same,TGI,SK-MEL-2 melanoma,> 100 µM
same,TGI,HOP-62 NSCLC,> 100 µM
same,TGI,SF-539 CNS,> 100 µM
same,TGI,LOX IMVI melanoma,> 100 µM
CSc1c(C#N)c(N)nc2c(N=Nc3ccc(Cl)cc3)c(N)nn12,TGI,T-47D breast,3.86 µM
same,TGI,OVCAR-4 ovarian,6.68 µM
same,TGI,UACC-62 melanoma,8.77 µM
same,TGI,HS 578T breast,3.43 µM
same,TGI,SF-295 CNS,62.3 µM
same,TGI,COLO 205 colon,30.3 µM
same,TGI,SK-MEL-2 melanoma,8.82 µM
same,TGI,HOP-62 NSCLC,28.6 µM
same,TGI,SF-539 CNS,12.3 µM
same,TGI,LOX IMVI melanoma,2.87 µM
C/C(=C/C(=O)Nn1c(Cc2ccccc2)n[nH]c1=O)C(=O)O,TGI,T-47D breast,> 100 µM
same,TGI,OVCAR-4 ovarian,> 100 µM
same,TGI,UACC-62 melanoma,> 100 µM
same,TGI,HS 578T breast,> 100 µM
same,TGI,SF-295 CNS,> 100 µM
same,TGI,COLO 205 colon,> 100 µM
same,TGI,SK-MEL-2 melanoma,> 100 µM
same,TGI,HOP-62 NSCLC,> 100 µM
same,TGI,SF-539 CNS,> 100 µM
same,TGI,LOX IMVI melanoma,> 100 µM
CCSc1cc(=O)n(C)c(=O)n1C,TGI,T-47D breast,> 100 µM
same,TGI,OVCAR-4 ovarian,> 100 µM
same,TGI,UACC-62 melanoma,> 100 µM
same,TGI,HS 578T breast,> 100 µM
same,TGI,SF-295 CNS,> 100 µM
same,TGI,COLO 205 colon,> 100 µM
same,TGI,SK-MEL-2 melanoma,> 100 µM
same,TGI,HOP-62 NSCLC,> 100 µM
same,TGI,SF-539 CNS,> 100 µM
same,TGI,LOX IMVI melanoma,> 100 µM
COc1ccc(C(SCCO)(c2ccccc2)c2ccccc2)cc1,TGI,T-47D breast,27 µM
same,TGI,OVCAR-4 ovarian,31.4 µM
same,TGI,UACC-62 melanoma,28.1 µM
same,TGI,HS 578T breast,59.2 µM
same,TGI,SF-295 CNS,28.6 µM
same,TGI,COLO 205 colon,27.5 µM
same,TGI,SK-MEL-2 melanoma,28 µM
same,TGI,HOP-62 NSCLC,37.9 µM
same,TGI,SF-539 CNS,30.2 µM
same,TGI,LOX IMVI melanoma,39.7 µM
Fc1ccc2nc3n(c2c1)C(c1c(Cl)cccc1Cl)SC3 (stereo not given),TGI,T-47D breast,> 100 µM
same,TGI,OVCAR-4 ovarian,> 100 µM
same,TGI,UACC-62 melanoma,> 100 µM
same,TGI,HS 578T breast,> 100 µM
same,TGI,SF-295 CNS,> 100 µM
same,TGI,COLO 205 colon,> 100 µM
same,TGI,SK-MEL-2 melanoma,> 100 µM
same,TGI,HOP-62 NSCLC,> 100 µM
same,TGI,SF-539 CNS,> 100 µM
same,TGI,LOX IMVI melanoma,> 100 µM
